The test system of series [1] is VSV/SARS-CoV-2 spike pseudovirion. The format is cell-based.
In series [2] the test system is SARS-CoV-2. It is filed as cell-based, Green African Monkey.
Series [3] has as its system SARS-CoV-2. The format is cell-based. The note with it: for sensitivity of SARS-CoV-2 infection to inhibitor: three of the lung tumor lines from John Minna, representative data.
Series [4] relates to Mouse Hepatitis Virus (MHV) strain A59. Description: Mouse hepatitis virus (MHV A59) infection of murine bone marrow-derived macrophages, virus load by qRT-PCR. The note with it: for MHV virus load in WT mBMDM: WT cells, pretreated and kept on cells. It is filed as cell-based. A general note: In qPCR the cycle at which signal appears reflects the starting amount.
For series [5], the system named is VSV/SARS-CoV-2 spike pseudovirions. The format is cell-based, Green African Monkey.
The test system of series [6] is SARS-CoV-2. The format is cell-based.
Series [7] deals with SARS-CoV-2. Description: SARS-CoV-2 binding on Vero E6 cells (qRT-PCR of bound viral RNA). The format is cell-based, Green African Monkey. The settings on record: MOI=5, 15° C., 60 m. How it is done:
FIG. 9 • Evaluation of SARS-CoV-2 binding on Vero E6 cells. Cells were incubated with virus (MOI=5) and treatments noted at 15° C. for 60 m. Subsequently, some cells were treated with trypsin to remove bound virus. All cells were washed extensively to remove unbound virus and cells were extracted for RNA. Viral load was determined and normalized for the host gene GAPDH. This is one of 3 different experiments yielding similar results.
In an additional set of studies with Vero E6 cells, it was evaluated whether bemcentinib or PS liposomes blocked VT SARS-CoV-2 binding. Using an MOI of 5, SARS-CoV-2 was incubated at 15° C. for 60 m with Vero E6 cells in the presence of bemcentinib or PS liposomes. Phosphatidylcholine (PC) liposomes were incubated with the cells as a control for PS-mediated viral competition; trypsin was added after virus binding to some cells as a negative control. Cells were placed in Trizol and virus binding was assessed by qRT-PCR detection of viral RNA genomes as compared to the level of a housekeeping gen mRNA, GAPDH. […] Similar studies in Vero E6 cells and other more relevant lung cells will be performed to assess virus internalization following virus binding.

For series [8], the system named is SARS-CoV-2. The format is cell-based. The note with it: A549-hACE2 and Vero E6 cells, 1 uM, 24 h, preliminary.
Series [9] deals with SARS-CoV-2. The format is cell-based. The settings on record: MOI=0.1, 24 h, inhibitor added prior to infection.
The test system of series [10] is SARS-CoV-2. The experiment in a line: BGBC020 and ACCORD-2 studies taken together. The format is in vivo, human. The note with it: across both BGBC020 and ACCORD-2 studies; SoC 10.
For series [11], the system named is SARS-CoV-2. The experiment in a line: SARS-CoV-2 salivary viral load (quantitative PCR) in BGBC020 patients. It is filed as in vivo.
In series [12] the test system is SARS-CoV-2. Description: Clinical case report: COVID-19 in a lung cancer patient on bemcentinib+erlotinib. It is filed as in vivo.
For a further series, the system named is Ebola virus. The settings on record: one of only two of sixty compounds; cited from earlier work.
The subject of series [13] is SARS-CoV-2. The note with it: Vero E6 and CaIU3, Dittmar et al; cited from earlier work.
Another series relates to MHV. The experiment in a line: MHV-infected C57BL/6 mice treated by gavage.
Series [14] relates to SARS-CoV-2. The experiment in a line: Phase 2 clinical trial ACCORD-2 (UK), hospitalised COVID-19 patients.
For series [15], the system named is SARS-CoV-2. Description: Phase 2 clinical trial BGBC020 (India, South Africa), hospitalised COVID-19 patients, bemcentinib plus SoC versus SoC.
[16] abbreviates: one high-risk patient on bemcentinib+erlotinib.

Entries after “also recorded” stand apart in the source; their conditions may differ. Like-named read-outs stand apart in the source and are kept apart here.

Regarding `CC(C)C[C@H](NC(=O)[C@H]1O[C@@H]1C(=O)O)C(=O)NCCCCN=C(N)N` [E64], in series [1], the “hACE2-dependent pseudovirion infection (luminescence)” value is recorded as “effectively blocked infection”. In addition, the “WT SARS-CoV-2 infection of Vero E6 cells (viral load)” value with SARS-CoV-2 [2] is “blocked infection”. Moreover, the “sensitivity of SARS-CoV-2 infection to inhibitor” value in the series with SARS-CoV-2 [3] was “sensitive”.

On to `Nc1nc(Nc2ccc3c(c2)CC[C@@H](N2CCCC2)CC3)nn1-c1cc2c(nn1)-c1ccccc1CCC2` [bemcentinib, 1-(6,7-dihydro-5H-benzo[6,7]cyclohepta[1,2-c]pyridazin-3-yl)-N^3-((7-(S)-pyrrolidin-1-yl)-6,7,8,9-tetrahydro-5H-benzo[7]annulene-2-yl)-1H-1,2,4-triazole-3,5-diamine], for which the “MHV infection of mBMDM (MHV spike gene, qRT-PCR)” value is given as “significantly reducing infection” in series [4] (1 μM, 24 h, p=0.034 in one-way ANOVA); “inhibitory trend; also recorded: did inhibit MHV infection” in series [4] (increasing concentrations, MOI 0.01, 24 h); “inhibits MHV infection” in [4] (increasing concentrations, MOI 0.01, 24 h, listed as Bemcentinib). For the same compound, the “reduction of MHV virus load in ISG15 (KO) and USP18C61A/C61A mBMDM” value in [4] (1 μM, 24 h, trend to lower virus load) is on record as “not statistically significant; also recorded: did not reach statistical significance”. Besides, in series [4] (BMDM from ISG15-null and USP18C61A/C61A mice, compared with wild type), the “inhibitory effect on virus infection” value was “more variable and in general reduced”. For the same compound, the viral-induced syncytia formation entry in series [4] (MHV-infected BMDM cultures) is listed as “reduced”. Further, the “MHV virus load in WT mBMDM” value in series [4] (1 μM, 24 h) is “significantly reduced MHV infection”; in series [4] (1 μM, 24 h, listed as Bemcentinib), “reduces virus load”. Also, the “coronavirus load in cells” value in series [4] (primary murine BMDM, MHV, 1 μM, 20 h following infection, preliminary) is “reduces coronavirus load”. The “SARS-CoV-2 spike dependent pseudovirion infection of Vero E6 cells” value in [5] is given as “highly effective; also recorded: inhibited pseudovirus infection”. Besides, in the series with SARS-CoV-2 [6], the “SARS-CoV-2 infection of CalU3 cells (viral load)” value is given as “did not inhibit”. In the series with SARS-CoV-2 [7], the “SARS-CoV-2 binding to Vero E6 cells” value is “no effect”. The “SARS-CoV-2 viral transcripts (RNAseq)” value is given as “dramatically reduced” in the series on SARS-CoV-2 [8] and “significantly reduced” in the series with SARS-CoV-2 [8] (listed as Bemcentinib). For the same compound, the “Sensitive to Bemcentinib” value in the series with SARS-CoV-2 [3] (lung line 820) is “Yes”; in the series on SARS-CoV-2 [3] (lung line CalU3), “No”; with SARS-CoV-2 [3] (lung line H322), “Yes”; in the series with SARS-CoV-2 [3] (lung line H1650), “Yes”; with SARS-CoV-2 [3] (lung line H1819), “No”; in the series on SARS-CoV-2 [3] (lung line H3255), “No”. Further, the “Sensitive to Bemcentinib” value in the series with SARS-CoV-2 [3] (lung line HCC1944) is recorded as “Mixed findings”; in the series on SARS-CoV-2 [3] (lung line HCC2302) it was “Yes”; in the series with SARS-CoV-2 [3] (lung line HCC4207), “Mixed findings”; with SARS-CoV-2 [3] (lung line HCC4256) it was “No”; with SARS-CoV-2 [3] (lung line HSAEC13) it was “Mixed findings”. For the same compound, the “sensitivity of SARS-CoV-2 infection to inhibitor” value in the series on SARS-CoV-2 [3] is listed as “sensitive”. In addition, the “SARS-CoV-2 virus load in Huh7 cells” value with SARS-CoV-2 [9] was “inhibited virus infection in a dose dependent manner”. In addition, in the series on SARS-CoV-2 [10], the COVID-19 related deaths turned out to be 3. Besides, the “patients with salivary viral load below LLOQ (500 copies/mL)” value was “approximately 66%” in the series on SARS-CoV-2 [11] (absence of another antiviral, day 8 (8 of 12), SoC 37.5%); 100% in the series with SARS-CoV-2 [11] (absence of another antiviral, day 11 (3 of 3), SoC 60%); “approximately 82%” in the series on SARS-CoV-2 [11] (presence of another antiviral (remdesivir or favipiravir), day 8 (9 of 11), SoC 54%); 100% with SARS-CoV-2 [11] (presence of another antiviral (remdesivir or favipiravir), day 11 (9 of 9), SoC 56%). Also, the “rate of viral clearance” value in the series with SARS-CoV-2 [11] (day 11, all patients, SoC 57%) was determined as 100%. This compound had a COVID-19 disease course in the series on SARS-CoV-2 [12] (setting [16]) of 7 days. In addition, the “course of COVID-19” value in the series on SARS-CoV-2 [12] (setting [16]) is given as “very mild”. For the same compound, the “transmission to co-habiting partner” value in the series on SARS-CoV-2 [12] (one patient on bemcentinib+erlotinib) was “lack of transmission”. In addition, the “effect against Ebola infection in animal models” value in the series with Ebola virus is reported as “some protective/therapeutic effect”. The “SARS-CoV-2 infection in both cell types” value in the series on SARS-CoV-2 [13] is recorded as “reported to inhibit”. Also, the “virus load in liver” value in the series on MHV (C57BL/6 mice, 50,000 iu MHV, versus pooled untreated and vehicle only groups, Student's t test) is on record as “significantly reduced virus load”. The “type I interferon responses (IFN related gene expression)” value in the series with MHV (MHV-infected C57BL/6 mice, day 3, spleen and liver RNA) is on record as “enhancing type I interferon responses”. In addition, the “Laboratory TRAE (haem or chemistry)” value in the series on SARS-CoV-2 [14] (ACCORD-2) is given as “no TRAE haem or chemistry”. Also, in the series with SARS-CoV-2 [14] (ACCORD-2), the QTcF prolongation entry is listed as “No reported QTcF prolongation”. For the same compound, the Mortality with SARS-CoV-2 [14] (by D29, of 30 patients, SoC 6 of 30) is reported as 1 patients; in the series with SARS-CoV-2 [15] (by D29, of 58 patients, SoC 4 of 57), 2 patients. In addition, in the series with SARS-CoV-2 [15] (BGBC020), the “QTcF prolongation >501 msec” value is “No QTcF prolongation”. For the same compound, in the series on SARS-CoV-2 [15] (BGBC020), the SUSAR entry is on record as “No SUSAR”. Also, the “Time to NEWS2 score ≤2, Hazard ratio (95% CI)” value in the series on SARS-CoV-2 [15] (BGBC020 interim results, secondary endpoint) was 1.10 (0.70, 1.73). The “worsening by 1, 2 or 3 points on WHO scale” value with SARS-CoV-2 [15] (days 2, 8, 15 and 29, versus standard of care alone) is reported as “lower proportion of individual patients experiencing worsening”. Further, the SAE with SARS-CoV-2 [15] (of 58 patients, SoC 4) is 5 patients. For the same compound, the NEWS2 normalisation result in the series with SARS-CoV-2 [15] (versus SoC, interim) is reported as “favours bemcentinib arm within week 1”. In addition, the “time to WHO OCS improvement or discharge (primary endpoint)” value with SARS-CoV-2 [15] (versus SoC, particularly with higher baseline CRP, interim) is on record as “Favours the bemcentinib arm”.

Consider `CN(C)C(=O)COC(=O)Cc1ccc(OC(=O)c2ccc(NC(=N)N)cc2)cc1` [camostat], for which the “hACE2-dependent pseudovirion infection (luminescence)” value in series [1] was “blocked infection, but to a lesser extent”.

The values are drawn from patent publication US20230250169A1, “AXL Inhibitors for Antiviral Therapy” (BERGENBIO ASA, priority 2020, published 2023).
